Laboratory results published in PubChem BioAssay AID248 (DTP/NCI, 2004).
Inconclusive results and toxic doses are left out.

System: L1210 leukemia ip in BDF1 mice, survival T/C
Assay: NCI In Vivo Anticancer Drug Screen. Data for tumor model L1210 Leukemia (intraperitoneal) in B6D2F1 (BDF1) mice
Settings: endpoint: mean survival time, higher = longer survival
Outline: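 Value reflects the ratio of survival in compound-treated mice to survival in vehicle-treated controls, with both groups carrying the same transplanted tumor.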

[1] = dose: 100.0 mg/kg/injection, schedule: Q04DX003 (ip), vehicle: saline
[2] = dose: 200.0 mg/kg/injection, schedule: Q04DX003 (ip), vehicle: saline
[3] = dose: 400.0 mg/kg/injection, schedule: Q04DX003 (ip), vehicle: saline
[4] = dose: 100.0 mg/kg/injection, schedule: Q01DX009 (ip), vehicle: Klucel (hydroxypropylcellulose) (HPC)
[5] = dose: 200.0 mg/kg/injection, schedule: Q01DX009 (ip), vehicle: Klucel (hydroxypropylcellulose) (HPC)
[6] = dose: 400.0 mg/kg/injection, schedule: Q01DX009 (ip), vehicle: Klucel (hydroxypropylcellulose) (HPC)
[7] = dose: 100.0 mg/kg/injection, schedule: Q04DX003 (ip), vehicle: saline with Tween-80
[8] = dose: 200.0 mg/kg/injection, schedule: Q01DX009 (ip), vehicle: saline with Tween-80
[9] = dose: 200.0 mg/kg/injection, schedule: Q04DX003 (ip), vehicle: saline with Tween-80
[10] = dose: 400.0 mg/kg/injection, schedule: Q01DX009 (ip), vehicle: saline with Tween-80
[11] = dose: 400.0 mg/kg/injection, schedule: Q04DX003 (ip), vehicle: saline with Tween-80
[12] = dose: 100.0 mg/kg/injection, schedule: Q04DX003 (ip), vehicle: Klucel (hydroxypropylcellulose) (HPC)
[13] = dose: 200.0 mg/kg/injection, schedule: Q04DX003 (ip), vehicle: Klucel (hydroxypropylcellulose) (HPC)
[14] = dose: 400.0 mg/kg/injection, schedule: Q04DX003 (ip), vehicle: Klucel (hydroxypropylcellulose) (HPC)
[15] = dose: 50.0 mg/kg/injection, schedule: Q01DX009 (ip), vehicle: Klucel (hydroxypropylcellulose) (HPC)
[16] = dose: 100.0 mg/kg/injection, schedule: Q01DX001 (ip), vehicle: saline
[17] = dose: 200.0 mg/kg/injection, schedule: Q01DX001 (ip), vehicle: saline
[18] = dose: 400.0 mg/kg/injection, schedule: Q01DX001 (ip), vehicle: saline

Structure (SMILES): CCC[CH2][Sn]([CH2]CCC)([O]C)[O]C
- T/C (dose: 4.0 mg/kg/injection, schedule: Q01DX009 (ip), vehicle: Klucel (hydroxypropylcellulose) (HPC)): 98 % of control
- T/C (dose: 4.0 mg/kg/injection, schedule: Q04DX003 (ip), vehicle: Klucel (hydroxypropylcellulose) (HPC)): 96 % of control
- T/C (dose: 8.0 mg/kg/injection, schedule: Q01DX009 (ip), vehicle: Klucel (hydroxypropylcellulose) (HPC)): 98 % of control
- T/C (dose: 8.0 mg/kg/injection, schedule: Q04DX003 (ip), vehicle: Klucel (hydroxypropylcellulose) (HPC)): 101 % of control
- T/C (dose: 16.0 mg/kg/injection, schedule: Q01DX009 (ip), vehicle: Klucel (hydroxypropylcellulose) (HPC)): 104 % of control
- T/C (dose: 16.0 mg/kg/injection, schedule: Q04DX003 (ip), vehicle: Klucel (hydroxypropylcellulose) (HPC)): 99 % of control

Structure (SMILES): CC(C)(C)C(=O)CC(=O)C(C)(C)C.CC(C)(C)C(=O)CC(=O)C(C)(C)C.[Cu]
- T/C (dose: 75.0 mg/kg/injection, schedule: Q01DX001 (ip), vehicle: other): 103 % of control
- T/C (dose: 150.0 mg/kg/injection, schedule: Q01DX001 (ip), vehicle: other): 94 % of control

Structure (SMILES): COC(=O)C1OC1c1cc(OC)ccc1OC (centres undefined)
- T/C (dose: 100.0 mg/kg/injection, schedule: Q01DX001 (ip), vehicle: saline with Tween-80): 102 % of control
- T/C [1]: 102 % of control
- T/C (dose: 200.0 mg/kg/injection, schedule: Q01DX001 (ip), vehicle: saline with Tween-80): 103 % of control
- T/C [2]: 100 % of control
- T/C (dose: 400.0 mg/kg/injection, schedule: Q01DX001 (ip), vehicle: saline with Tween-80): 89 % of control
- T/C [3]: 97 % of control

Structure (SMILES): Brc1cccc(CCOCc2ccccc2)c1
- T/C (dose: 100.0 mg/kg/injection, schedule: Q04DX002 (ip), vehicle: saline with Tween-80): 103 % of control
- T/C (dose: 200.0 mg/kg/injection, schedule: Q04DX002 (ip), vehicle: saline with Tween-80): 100 % of control
- T/C (dose: 400.0 mg/kg/injection, schedule: Q04DX002 (ip), vehicle: saline with Tween-80): 97 % of control

Structure (SMILES): COC(=O)CCC(C)C1CCC2(C)C3=C(C(=O)CC12C)C1(C)CCC(O)C(C)(C)C1=C(O)C3 (centres undefined)
- T/C [1]: 91 % of control
- T/C [2]: 93 % of control
- T/C [3]: 91 % of control

Structure (SMILES): CCCCCCCCCCCCCCCC(C1CCCC1)C1CCCC1
- T/C (dose: 75.0 mg/kg/injection, schedule: Q01DX001 (ip), vehicle: saline with Tween-80): 99 % of control
- T/C (dose: 150.0 mg/kg/injection, schedule: Q01DX001 (ip), vehicle: saline with Tween-80): 97 % of control
- T/C (dose: 300.0 mg/kg/injection, schedule: Q01DX001 (ip), vehicle: saline with Tween-80): 101 % of control

Structure (SMILES): CSc1ccc(NC(=O)c2ccc(C(=O)Nc3ccc(SC)cc3)cc2)cc1
- T/C [4]: 94 % of control
- T/C [5]: 89 % of control
- T/C [6]: 89 % of control

Structure (SMILES): COC(=O)C1CC(=O)C2(C)CCc3c(ccc4cc(OC)ccc34)C12 (centres undefined)
- T/C (dose: 100.0 mg/kg/injection, schedule: Q01DX009 (sc), vehicle: steriod suspending solution): 103 % of control
- T/C (dose: 100.0 mg/kg/injection, schedule: Q04DX003 (sc), vehicle: steriod suspending solution): 102 % of control
- T/C (dose: 200.0 mg/kg/injection, schedule: Q01DX009 (sc), vehicle: steriod suspending solution): 93 % of control
- T/C (dose: 200.0 mg/kg/injection, schedule: Q04DX003 (sc), vehicle: steriod suspending solution): 86 % of control
- T/C (dose: 400.0 mg/kg/injection, schedule: Q01DX009 (sc), vehicle: steriod suspending solution): 88 % of control
- T/C (dose: 400.0 mg/kg/injection, schedule: Q04DX003 (sc), vehicle: steriod suspending solution): 94 % of control

Structure (SMILES): COc1cc(N(CCCl)CCCl)c(OC)cc1C=Nc1ccc(-c2nc(Cc3ccccc3)sc2C)cc1
- T/C (dose: 4.0 mg/kg/injection, schedule: Q01DX009 (ip), vehicle: other): 117 % of control
- T/C (dose: 6.0 mg/kg/injection, schedule: Q01DX009 (ip), vehicle: other): 123 % of control
- T/C (dose: 9.0 mg/kg/injection, schedule: Q01DX009 (ip), vehicle: other): 120 % of control
- T/C (dose: 12.5 mg/kg/injection, schedule: Q01DX001 (ip), vehicle: carboxymethylcellulose (CMC)): 105 % of control
- T/C (dose: 25.0 mg/kg/injection, schedule: Q01DX001 (ip), vehicle: carboxymethylcellulose (CMC)): 105 % of control
- T/C (dose: 44.0 mg/kg/injection, schedule: Q01DX001 (ip), vehicle: carboxymethylcellulose (CMC)): 110 % of control
- T/C (dose: 44.0 mg/kg/injection, schedule: Q01DX009 (ip), vehicle: other): 160 % of control
- T/C (dose: 66.0 mg/kg/injection, schedule: Q01DX009 (ip), vehicle: carboxymethylcellulose (CMC)): 102 % of control
- T/C (dose: 100.0 mg/kg/injection, schedule: Q01DX009 (ip), vehicle: carboxymethylcellulose (CMC)): 88 % of control
- T/C (dose: 150.0 mg/kg/injection, schedule: Q01DX001 (ip), vehicle: carboxymethylcellulose (CMC)): 153 % of control

Structure (SMILES): Nc1ccc(SCc2nc3cccc4c3n2CCC4)cc1
- T/C (dose: 100.0 mg/kg/injection, schedule: Q01DX009 (ip), vehicle: saline with Tween-80): 88 % of control
- T/C [7]: 96 % of control
- T/C [8]: 96 % of control
- T/C [9]: 94 % of control
- T/C [10]: 105 % of control
- T/C [11]: 92 % of control

Structure (SMILES): CCOC(=O)c1cc(C)n(-c2ccc(-c3ccc(-n4c(C)cc(C(=O)OCC)c4C)c(C)c3)cc2C)c1C
- T/C [12]: 98 % of control
- T/C [13]: 101 % of control
- T/C [14]: 93 % of control

Structure (SMILES): C=CCn1c(=S)[nH]c2ccccc2c1=O
- T/C [7]: 93 % of control
- T/C [8]: 91 % of control
- T/C [9]: 94 % of control
- T/C [10]: 89 % of control
- T/C [11]: 96 % of control

Structure (SMILES): COc1ccc(C(=O)c2c[nH]c3c(OC)ccc(O)c23)cc1
- T/C (dose: 6.25 mg/kg/injection, schedule: Q04DX002 (ip), vehicle: saline with Tween-80): 95 % of control
- T/C (dose: 12.5 mg/kg/injection, schedule: Q04DX002 (ip), vehicle: saline with Tween-80): 95 % of control
- T/C (dose: 25.0 mg/kg/injection, schedule: Q04DX002 (ip), vehicle: saline with Tween-80): 91 % of control

Structure (SMILES): CNC(=O)NCCN(C)c1ccccc1
- T/C (dose: 100.0 mg/kg/injection, schedule: Q04DX002 (ip), vehicle: Klucel (hydroxypropylcellulose) (HPC)): 92 % of control
- T/C (dose: 200.0 mg/kg/injection, schedule: Q04DX002 (ip), vehicle: Klucel (hydroxypropylcellulose) (HPC)): 110 % of control
- T/C (dose: 400.0 mg/kg/injection, schedule: Q04DX002 (ip), vehicle: Klucel (hydroxypropylcellulose) (HPC)): 106 % of control

Structure (SMILES): Cc1ccccc1NC(=O)CI
- T/C (dose: 12.5 mg/kg/injection, schedule: Q01DX009 (ip), vehicle: Klucel (hydroxypropylcellulose) (HPC)): 97 % of control
- T/C (dose: 25.0 mg/kg/injection, schedule: Q01DX009 (ip), vehicle: Klucel (hydroxypropylcellulose) (HPC)): 103 % of control
- T/C [15]: 101 % of control

Structure (SMILES): CC(C)=CCC/C(C)=C\C(N)=O
- T/C [16]: 106 % of control
- T/C [17]: 92 % of control
- T/C [18]: 111 % of control

Structure (SMILES): COc1ccc2c(c1)C=Cc1ccc(Cl)cc1N2
- T/C [4]: 97 % of control
- T/C [12]: 98 % of control
- T/C [5]: 94 % of control
- T/C [13]: 101 % of control
- T/C [6]: 94 % of control
- T/C [14]: 104 % of control

Structure (SMILES): Cc1ncc(CCO)c2c1OC(C)(C)OC2
- T/C (dose: 100.0 mg/kg/injection, schedule: Q01DX001 (ip), vehicle: carboxymethylcellulose (CMC)): 98 % of control
- T/C (dose: 200.0 mg/kg/injection, schedule: Q01DX001 (ip), vehicle: carboxymethylcellulose (CMC)): 110 % of control
- T/C (dose: 400.0 mg/kg/injection, schedule: Q01DX001 (ip), vehicle: carboxymethylcellulose (CMC)): 101 % of control

Structure (SMILES): CC(C)C1CCC(C)C(NC(N)=O)C1 (centres undefined)
- T/C [16]: 95 % of control
- T/C [17]: 97 % of control
- T/C [18]: 106 % of control

Structure (SMILES): CC1CN(Cc2ccccc2)C(=S)NC1=O (centres undefined)
- T/C (dose: 25.0 mg/kg/injection, schedule: Q01DX Z (ip), vehicle: methylcellulose (MC)): 89 % of control
- T/C (dose: 50.0 mg/kg/injection, schedule: Q01DX Z (ip), vehicle: methylcellulose (MC)): 98 % of control

Structure (SMILES): COc1ccc(CC(C(=O)O)C(Cc2ccc(OC)c(OC)c2)C(=O)O)cc1OC (centres undefined)
- T/C [15]: 94 % of control
- T/C [4]: 104 % of control
- T/C [1]: 118 % of control
- T/C [5]: 95 % of control
- T/C [2]: 114 % of control
- T/C [6]: 91 % of control
- T/C [3]: 98 % of control
